Source: patent US20160256480A1, “THERAPEUTIC COMPOSITION FOR WOUND HEALING” (priority 2015, published 2016)

Legend:
J774A.1 cells = test: Incubation of J774A.1 mouse macrophages with beta-glucan, phase-contrast examination of cell health; type: cell-based
Method: (§1) J774A.1 cells are mouse monocyte/macrophage cells. These cells are adherent and upon death will detach from the surface fo the culture flasks or coverslips. Cells were grown to approximately 80% confluence in 24-well plates on 12 mm coverslips overnight. Cells were grown in a minimum essential medium with insulin (IMEMZO, Irvine Scientific, Santa Ana, Calif.) with 5% fetal bovine serum (FBS, Atlanta Biologicals, Norcross, Ga.). Beta-glucan was dissolved with MilliQ Ultrapure water. […] Beta-glucan was diluted with IMEMZO media and added to the cells for the duration of the incubation. Cells were examined daily and phase-contrast images taken at specific intervals to capture the health of the cells. All images were captured at 200× magnification.
The beta-glucan was purchased from Sigma-Aldrich (CAS Number 9051-97-2; MDL number MFCD00466918). Beta-glucan source was Euglena gracilis.

[1] = Dissolution of beta-glucan in MilliQ Ultrapure water; type: physicochemical
Method: as §1

beta-1,3-Glucan from Euglena gracilis [beta-glucan]
effect on cell growth and proliferation (J774A.1 cells; 1 mg/ml beta-glucan over 48 hours): no adverse affect on the cell growth and proliferation
increase in cell numbers (J774A.1 cells; 3 mg/ml beta-glucan, base media IMEMZO, 48 hours): increased in numbers at a rate that is typical in the base media
visible pathological effects on cellular growth or survival (J774A.1 cells; 3 mg/ml beta-glucan, mouse macrophages, 48 hour culture period): did not pose any visible pathological effects on cellular growth or survival
cell size and adherence (J774A.1 cells; 3 mg/ml beta-glucan, over the 48 hour culture period): did not decrease in size and remained adherent
solubility in water [1]: only partially dissolved
